Experimental data published in patent US9585888B2, “Reduction of toxicity of multi-targeting antifolates” (Isofol Medical AB, priority 2003, dated 2017).
Read-outs that look alike come from different tables or passages of the source.

How the values were obtained:
[1] = test system: tumor growth; conditions: cited from earlier work
[2] = test system: experimental adenocarcinoma
Procedure: Eight inbred female Wistar rats were during general anesthesia inoculated in the central liver lobe with 0.1 ml of 1.0 million viable tumor cells of an experimental adenocarcinoma. On day 5 the animals were relaparotomized during general anesthesia, the body weight was recorded and the size of the solitary liver tumor was measured with vernier calipers.
The animals were randomly allocated to two groups. Group 1 received intravenous injections of ALIMTA (pemetrexed) 0.01 mg/kg and group 2 received 0.1 mg/kg of ALIMTA. Both groups received 15 mg/kg of R-5,10-CH2FH4 immediately following the injections of ALIMTA. Therapy was administered through intravenous injections via the tail vein on days 6-8 and days 11-12. On day 13 all animals were sacrificed by an overdose of anesthesia.
The body weights were recorded and the size of the liver tumors was measured. The wet weights of the excised liver tumor and spleen were recorded.

[3] = test system: TS; assay: TS expression levels after Tomudex intravenous bolus injection in colorectal cancer patients; assay type: in vivo; conditions: multi-targeting antifolate only
Procedure: In this experiment, the effect of a multi-targeting antifolate, i.e. Tomudex (raltitrexed), was shown.
Nine colorectal cancer patients were included in the study, and the expression levels were measured in actin, which is a protein serving as an important structural molecule for the cytoskeletons of many eukaryotic cells.

[4] = Tissue concentration of methylene-THF in tumor biopsy after i.v. bolus injection of folates; assay type: in vivo, patients; conditions: tumor biopsy at 20 minutes after i.v. bolus injection; compared with leucovorin
Procedure: The level of increase of tissue concentration of methylene-THF after administration of leucovorin and methylene-THF, respectively, has been compared. Patients operated upon due to liver metastases were given a dose of folates. Biopses were taken from the tumor before i.v. bolus injection of leucovorin on methylenetetrahydrofolate. At 20 minutes a new tumor biopsy was taken and the concentration of MTHF was assayed.

O=c1[nH]cc(F)c(=O)[nH]1 [5-FU, 5-fluorouracil]
tumor growth suppression ([1]; 5-FU administered to folate depleted animals 1 hr after folinic acid): approximately 80%
tumor growth suppression ([1]; control mice): approximately 50%
effect on tumor growth ([1]; folinic acid administered 12 hr before 5-FU): tumor growth stimulation

Nc1nc2[nH]cc(CCc3ccc(C(=O)N[C@@H](CCC(=O)O)C(=O)O)cc3)c2c(=O)[nH]1 [ALIMTA, pemetrexed]
extrahepatic tumor growth ([2]; ALIMTA 0.01 mg/kg i.v. + 15 mg/kg R-5,10-CH2FH4 (group 1), day 13): extrahepatic tumor growth in the abdominal cavity as metastases to the lungs
extrahepatic metastases ([2]; highest Alimta dose (0.1 mg/kg i.v.) + 15 mg/kg R-5,10-CH2FH4 (group 2)): no extrahepatic metastases were recorded

Cc1nc2ccc(CN(C)c3ccc(C(=O)N[C@@H](CCC(=O)O)C(=O)O)s3)cc2c(=O)[nH]1 [Tomudex, raltitrexed]
clinical toxicity ([3]; clinical findings): severe toxic effects from the bowel made it impossible to continue the treatment
effect on normal mucosa versus tumor (TS expression levels) ([3]; intravenous bolus injection): the normal mucosa is actually more adversely affected than the tumor

Nc1nc2c(c(=O)[nH]1)N(C=O)C(CNc1ccc(C(=O)N[C@@H](CCC(=O)O)C(=O)O)cc1)CN2 (stereo partly drawn) [folinic acid]
effect on tumor growth ([1]; folinic acid administered without 5-FU): pronounced growth stimulation

Nc1nc2c(c(=O)[nH]1)N1CN(c3ccc(C(=O)N[C@@H](CCC(=O)O)C(=O)O)cc3)CC1CN2 (stereo partly drawn) [methylene-THF, 5,10-methylene-tetrahydrofolate]
tissue concentration of methylene-THF in tumor [4]: greater tissue concentration of methylene-THF than leucovorin
